Measured values from US3987047A, “Tetrahydro-azepinoquinolines” (Boehringer Ingelheim GmbH, priority 1973, dated 1976).
Where a name gives a salt, the structure may show the parent alone.

Columns and labels:
Male albino rats = experiment: Anorectic test (effect on food intake of fasted rats); type: in vivo; settings: sc; rat; dose which reduced the food intake by 50% over the reference value; 2 hour test period
Method: Male albino rats with starting weights from 200 to 250 gm, kept in so-called makrolon-cages, three to a cage, in an air-conditioned room at a temperature of 22 ± 1° C and about 50 % relative humidity. Between test runs, food (standard feed Altromin R) and drinking water were freely accessible.
A combination metabolism and motility test cage, described by J. M. van ROSSUM and F. SIMONS (Psychopharmacologia 14, 248, 1969) was used. With the aid of this device it is possible to measure the food intake and motoric activity on the same test animal.
For effecting and evaluating this test, a modified version of the method of J. SPENGLER and P. WASER [Arch. exp. Path. Pharmcol. 237, 171 (1959)] was used. A test group consisting of 6 ats was used for the test over a 3months' period, once a week, always on the same day of the week and at the same time of day. In preparation for the test, the animals were fasted for 24 hours while they had free access to drinking water. Then, they were put singly into the above-mentioned test cage for 2 hours, where a preweighed quantity of feed (Altromin-R, pulverized) and drinking water was offered ad libitum. Scattered feed was collected carefully, the consumed quantity of feed was determined by weighing the remaining quantity, and the food intake was calculated in terms of grams per 100 gm body weight. the test compound was injected subcutaneously or administered orally by esophageal sound at the beginning of the test period. […] Therefore, each group served as its own control. In the control tests the rats were given at the beginning of the 2 hour test period, 0.1 ml/100 gm water orally or 0.1 ml/100 gm physiological NaCl-solution subcutaneously. Before the test runs, 3 to 4 control tests were made and repeated later at intervals of 5 weeks. The average amount of the food intake which the animals had shown in the control tests was taken as the reference value. The anorectic activity of the test compound was expressed in terms of the percentage reduction of this reference value, and the median anorectic dose (ED50), i.e. the dose which reduced the food intake by 50% over the reference value was graphically calculated.

[1] = Acute toxicity (LD50 in mice); settings: in vivo, sc; for selectivity ratio: LD50 mouse s.c. / anorectic ED50 rat s.c., read-out: Therapeutic ratio LD50/ED50; for LD50 at 24 h: mouse, 24 hours observation
Method: Groups of 10 male mice of the NMRI-strain with body weights between 18 and 30 gm. The animals were put individually into cylindrical jars and received by subcutaneous injection under the dorsal skin gradually increasing doses from 0.1 to 0.2 ml/10 gm of body weight of the test compound. The limits for the test dosage range had previously been determined on individual mice. The symptoms of poisoning were recorded. After an observation period of 24 hours the dead animals were counted. The determination of the median lethal dose (LD50) according to G. KARBER [Arch. exper. Path. Pharmak. 162, 480, (1931)] concluded the test.

Row | SMILES | ED50 (Male albino rats) [mg/kg] | selectivity ratio [1] | LD50 at 24 h [1] [mg/kg]
1 | Cc1c2c(nc3ccccc13)CCNCC2.Cl.Cl [C, 1,2,4,5-tetrahydro-11-methyl-3H-azepino[4,5-b]quinoline dihydrochloride] | 0.2 | 415 | 83
2 | Cc1c2c(nc3ccc(Cl)cc13)CCNCC2.Cl.Cl [F, 9-chloro-1,2,4,5-tetrahydro-11-methyl-3H-azepino[4,5-b]quinoline dihydrochloride] | 1.5 | 143 | 215
3 | CCN1CCc2nc3ccccc3c(C)c2CC1.Cl.Cl [A, 3-ethyl-1,2,4,5-tetrahydro-11-methyl-3H-azepino[4,5-b]quinoline dihydrochloride] | 1.9 | 95 | 180
4 | CCCN1CCc2nc3ccccc3c(C)c2CC1.Cl.Cl [I, 1,2,4,5-tetrahydro-11-methyl-3propyl-3H-azepino[4,5-b]quinoline dihydrochloride] | 0.9 | – | –
5 | Cc1c2c([n+]([O-])c3ccccc13)CCNCC2 [G, 1,2,4,5-tetrahydro-11-methyl-3H-azepino[4,5-b]quinoline-6-N-oxide hydrochloride] | 0.8 | 394 | 315
6 | Cc1c2c(nc3ccccc13)CCN(CC(C)O)CC2.Cl.Cl (stereo not drawn) [M, 3-(2-hydroxy-propyl)-1,2,4,5-tetrahydro-11-methyl-3H-azepino[4,5-b]quinoline dihydrochloride] | 2 | – | –
7 | CCOC(=O)N1CCc2nc3ccccc3c(C)c2CC1 [D, 1,2,4,5-tetrahydro-11-methyl-3-azepino[4,5-b]quinoline-carboxylic acid ethyl ester] | 0.8 | 1010 | 810
8 | Cc1c2c(nc3cccc(Cl)c13)CCNCC2 [K, 10-chloro-1,2,4,5-tetrahydro-11-methyl-3H-azepino[4,5-b]quinoline dihydrochloide] | 1.3 | – | –
9 | CCOC(=O)N1CCc2c(nc3ccccc3c2C)C(O)C1 (stereo not drawn) [L, 5-hydroxy-1,2,4,5-tetrahydro-11-methyl-3-azepino[4,5-b]quinoline-carboxylic acid ethyl ester] | 4 | – | –
10 | Cc1c2c(nc3ccccc13)C(O)CNCC2.Cl.Cl (stereo not drawn) [H, 5-hydroxy-1,2,4,5-tetrahydro-11-methyl-3H-azepino[4,5-b]quinoline dihydrochloride] | 0.3 | 420 | 126
11 | CCCc1c2c(nc3ccccc13)CCNCC2.Cl.Cl [Compound E, 1,2,4,5-tetrahydro-11-propyl-3H-azepino[4,5-b]quinoline dihydrochloride] | 0.9 | 164 | 148
12 | COC(=O)N1CCc2nc3ccccc3c(C)c2CC1 [N, 1,2,4,5-tetrahydro-11-methyl-3-azepino[4,5-b]quinoline-carboxylic acid methyl ester] | 1.8 | – | –
13 | Cc1c2c(nc3ccccc13)CCCNC2.Cl.Cl [B, 2,3,4,5-tetrahydro-11-methyl-1H-azepino[4,3-b]quinoline dihydrochloride] | 1.1 | 177 | 195
14 | Cc1c2c(nc3ccccc13)CCN(C(=O)OC(C)(C)C)CC2.Cl [J, 1,2,4,5-tetrahydro-11-methyl-3azepino[4,5-b]quinoline-carboxylic acid tert.butyl ester hydrochloride] | 1.1 | – | –
